Measured values from patent US20220387602A1, “BIFUNCTIONAL DEGRADERS AND THEIR METHODS OF USE” (NOVARTIS AG, priority 2019, published 2022).

What was measured:
BTK = target: T1, BTK (Homo sapiens, UniProt Q06187); test: BTK-GFP protein abundance flow cytometry assay in HEK293A; assay type: cell-based; conditions: 24 h; for BTK degradation Amax: % protein remaining at the concentration at which maximum degradation is seen, HEK293A; for DC50: concentration at which 50% maximal degradation was observed, HEK293A BTK-GFP sensor cells
T1 construct: the BTK open reading frame (ORF) was first shuttled from a pcDNA-DEST40-BTK vector; expressed in transfected cells; host or cells: HEK293A (Invitrogen R70507), lentiviral transduction, blasticidin selection
Procedure, shortened: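 HEK293A cells stably expressing bicistronic BTK-GFP-iresRFP were treated 24 h at 37° C with 10-point 1:3 dilutions from 10 μM, DMSO at 0.1%. GFP was read by flow cytometry as median of 5,000 single cells, scaled between RFP-only cells (0%) and DMSO controls (100%). DC50 = concentration at 50% degradation; Amax = % protein remaining at maximal degradation.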

CRBN = CRBN (Homo sapiens, UniProt Q96SW2); test: CRBN displacement assay Format 1 (fluorescence polarization, BodipyFL-lenalidomide probe Compound HH); assay type: binding
Procedure, shortened: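 Fluorescence polarization competition: CRBN (nominal 100 nM final) pre-incubated 45 min at room temperature with compound, then BodipyFL-lenalidomide probe added (5 nM final; 0.9% DMSO).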

Chain of CRBN (Q96SW2 whole entry): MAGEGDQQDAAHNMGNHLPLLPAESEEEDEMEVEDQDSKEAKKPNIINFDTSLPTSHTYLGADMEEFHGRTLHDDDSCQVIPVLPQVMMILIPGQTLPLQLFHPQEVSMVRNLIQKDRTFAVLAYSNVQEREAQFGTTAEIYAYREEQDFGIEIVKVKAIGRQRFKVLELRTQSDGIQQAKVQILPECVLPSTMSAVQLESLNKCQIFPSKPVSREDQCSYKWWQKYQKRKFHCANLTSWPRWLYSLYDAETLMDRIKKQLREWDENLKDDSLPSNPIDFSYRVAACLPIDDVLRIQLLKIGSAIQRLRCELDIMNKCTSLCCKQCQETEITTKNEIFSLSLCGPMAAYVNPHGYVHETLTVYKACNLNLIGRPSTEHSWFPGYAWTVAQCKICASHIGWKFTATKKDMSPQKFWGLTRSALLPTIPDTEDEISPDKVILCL
T1 sequence (Q06187 whole entry): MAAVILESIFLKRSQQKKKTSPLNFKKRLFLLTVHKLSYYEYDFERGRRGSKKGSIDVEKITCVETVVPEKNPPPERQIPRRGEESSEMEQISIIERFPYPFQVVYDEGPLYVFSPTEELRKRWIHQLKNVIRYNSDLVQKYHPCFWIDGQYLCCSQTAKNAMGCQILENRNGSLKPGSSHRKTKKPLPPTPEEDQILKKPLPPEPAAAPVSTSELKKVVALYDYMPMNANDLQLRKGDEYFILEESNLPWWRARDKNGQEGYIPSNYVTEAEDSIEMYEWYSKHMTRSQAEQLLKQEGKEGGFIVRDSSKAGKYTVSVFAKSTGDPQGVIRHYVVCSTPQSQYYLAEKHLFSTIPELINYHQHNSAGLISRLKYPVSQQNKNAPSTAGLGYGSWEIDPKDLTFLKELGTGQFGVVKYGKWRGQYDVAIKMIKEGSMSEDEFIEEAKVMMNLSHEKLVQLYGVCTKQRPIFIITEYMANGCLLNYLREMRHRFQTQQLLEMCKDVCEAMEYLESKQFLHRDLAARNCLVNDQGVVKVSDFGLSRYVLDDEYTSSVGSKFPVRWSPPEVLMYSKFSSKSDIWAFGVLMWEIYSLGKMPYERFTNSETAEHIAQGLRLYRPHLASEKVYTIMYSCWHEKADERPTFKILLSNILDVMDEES

Row | SMILES | BTK degradation Amax (BTK) | DC50 (BTK) | AC50 (CRBN)
1 | Cc1c(NC(=O)c2ccc(C(C)(C)O)cc2F)cc(F)cc1-c1ncnc2[nH]c(-c3ccc(CN(C)CCCCCCOc4cccc(N5CCC(=O)NC5=O)c4)cc3)cc12 [Compound 16, N-(3-(6-(4-(((6-(3-(2,4-Dioxotetrahydropyrimidin-1(2H)-yl)phenoxy)hexyl)(methyl)amino)methyl)phenyl)-7H-pyrrolo[2,3-d]pyrimidin-4-yl)-5-fluoro-2-methylphenyl)-2-fluoro-4-(2-hydroxypropan-2-yl)benzamide] | 15.9% | 22.6 nM | 916 nM
2 | Cc1ncc(C(=O)NCCCCCN(C)Cc2ccc(-c3cc4c(-c5cc(F)cc(NC(=O)c6ccc(C(C)(C)O)cc6F)c5C)ncnc4[nH]3)cc2)cc1N1CCC(=O)NC1=O [Compound 17, 5-(2,4-Dioxotetrahydropyrimidin-1(2H)-yl)-N-(5-((4-(4-(5-fluoro-3-(2-fluoro-4-(2-hydroxypropan-2-yl)benzamido)-2-methylphenyl)-7H-pyrrolo[2,3-d]pyrimidin-6-yl)benzyl)(methyl)amino)pentyl)-6-methylnicotinamide] | 16.6% | 101 nM | 3550 nM
3 | Cc1ccc(S(=O)(=O)NCCCCCNCc2ccc(-c3cc4c(-c5cc(F)cc(NC(=O)c6ccc(C(C)(C)O)cc6F)c5C)ncnc4[nH]3)cc2)cc1N1CCC(=O)NC1=O [Compound 18, N-(3-(6-(4-(((5-(3-(2,4-dioxotetrahydropyrimidin-1(2H)-yl)-4-methylphenylsulfonamido)pentyl)amino)methyl)phenyl)-7H-pyrrolo[2,3-d]pyrimidin-4-yl)-5-fluoro-2-methylphenyl)-2-fluoro-4-(2-hydroxypropan-2-yl)benzamide] | 7.6% | 307 nM | 3090 nM
4 | Cc1c(NC(=O)c2ccc(C(C)(C)O)cc2F)cc(F)cc1-c1ncnc2[nH]c(-c3ccc(CNCCCCCCn4cc(-c5cccc(N6CCC(=O)NC6=O)c5)nn4)cc3)cc12 [Compound 19, N-(3-(6-(4-(((6-(4-(3-(2,4-Dioxotetrahydropyrimidin-1(2H)-yl)phenyl)-1H-1,2,3-triazol-1-yl)hexyl)amino)methyl)phenyl)-7H-pyrrolo[2,3-d]pyrimidin-4-yl)-5-fluoro-2-methylphenyl)-2-fluoro-4-(2-hydroxypropan-2-yl)benzamide] | 48.2% | 229 nM | 104 nM
5 | Cc1c(NC(=O)c2ccc(C(C)(C)O)cc2F)cc(F)cc1-c1ncnc2[nH]c(-c3ccc(CN4CCC5(CC4)CN(CCCc4ccc(N6CCC(=O)NC6=O)cc4)CCO5)cc3)cc12 [Compound 20, N-(3-(6-(4-((4-(3-(4-(2,4-Dioxotetrahydropyrimidin-1(2H)-yl)phenyl)propyl)-1-oxa-4,9-diazaspiro[5.5]undecan-9-yl)methyl)phenyl)-7H-pyrrolo[2,3-d]pyrimidin-4-yl)-5-fluoro-2-methylphenyl)-2-fluoro-4-(2-hydroxypropan-2-yl)benzamide] | 37.1% | 27.7 nM | > 100000 nM
6 | Cc1c(NC(=O)c2ccc(C(C)(C)O)cc2F)cc(F)cc1-c1ncnc2[nH]c(-c3ccc(CN4CCN(C(=O)N5CCN(CCC#Cc6ccc(N7CCC(=O)NC7=O)cc6)CC5)CC4)cc3)cc12 [Compound 23, N-(3-(6-(4-((4-(4-(4-(4-(2,4-Dioxotetrahydropyrimidin-1(2H)-yl)phenyl)but-3-yn-1-yl)piperazine-1-carbonyl)piperazin-1-yl)methyl)phenyl)-7H-pyrrolo[2,3-d]pyrimidin-4-yl)-5-fluoro-2-methylphenyl)-2-fluoro-4-(2-hydroxypropan-2-yl)benzamide] | 9.6% | 2.8 nM | > 50500 nM
7 | COc1cc(C(=O)N2CCC(OC3CCN(Cc4ccc(-c5cc6c(-c7cc(F)cc(NC(=O)c8ccc(C(C)(C)O)cc8F)c7C)ncnc6[nH]5)cc4)CC3)CC2)ccc1N1CCC(=O)NC1=O [Compound 24, N-(3-(6-(4-((4-((1-(4-(2,4-Dioxotetrahydropyrimidin-1(2H)-yl)-3-methoxybenzoyl)piperidin-4-yl)oxy)piperidin-1-yl)methyl)phenyl)-7H-pyrrolo[2,3-d]pyrimidin-4-yl)-5-fluoro-2-methylphenyl)-2-fluoro-4-(2-hydroxypropan-2-yl)benzamide] | 55.7% | 24 nM | 5190 nM
8 | COc1cc(C(=O)NCCCCN2CCN(Cc3ccc(-c4cc5c(-c6cc(F)cc(NC(=O)c7ccc(C(C)(C)O)cc7F)c6C)ncnc5[nH]4)cc3)CC2)ccc1N1CCC(=O)NC1=O [Compound 25, N-(3-(6-(4-((4-(4-(4-(2,4-dioxotetrahydropyrimidin-1(2H)-yl)-3-methoxybenzamido)butyl)piperazin-1-yl)methyl)phenyl)-7H-pyrrolo[2,3-d]pyrimidin-4-yl)-5-fluoro-2-methylphenyl)-2-fluoro-4-(2-hydroxypropan-2-yl)benzamide] | 51.1% | > 3330 nM | 4470 nM
9 | Cc1c(NC(=O)c2ccc(C(C)(C)O)cc2F)cc(F)cc1-c1ncnc2[nH]c(-c3ccc(CN4CCN(CCNC(=O)COc5ccc(N6CCC(=O)NC6=O)cc5)CC4)cc3)cc12 [Compound 26, N-(3-(6-(4-((4-(2-(2-(4-(2,4-Dioxotetrahydropyrimidin-1(2H)-yl)phenoxy)acetamido)ethyl)piperazin-1-yl)methyl)phenyl)-7H-pyrrolo[2,3-d]pyrimidin-4-yl)-5-fluoro-2-methylphenyl)-2-fluoro-4-(2-hydroxypropan-2-yl)benzamide] | 10.6% | 11.2 nM | 3920 nM
10 | Cc1c(NC(=O)c2ccc(C(C)(C)O)cc2F)cc(F)cc1-c1ncnc2[nH]c(C3=CCN(C(=O)CCCCN4CCC(Oc5ccc(N6CCC(=O)NC6=O)cc5)CC4)CC3)cc12 [Compound 27, N-(3-(6-(1-(5-(4-(4-(2,4-Dioxotetrahydropyrimidin-1(2H)-yl)phenoxy)piperidin-1-yl)pentanoyl)-1,2,3,6-tetrahydropyridin-4-yl)-7H-pyrrolo[2,3-d]pyrimidin-4-yl)-5-fluoro-2-methylphenyl)-2-fluoro-4-(2-hydroxypropan-2-yl)benzamide] | 21.7% | 22 nM | 1940 nM
11 | Cc1c(NC(=O)c2ccc(C(C)(C)O)cc2F)cc(F)cc1-c1ncnc2[nH]c(-c3ccc(CNCCN4CCC(Oc5ccc(N6CCC(=O)NC6=O)cc5)CC4)cc3)cc12 [Compound 29, N-(3-(6-(4-(((2-(4-(4-(2,4-dioxotetrahydropyrimidin-1(2H)-yl)phenoxy)piperidin-1-yl)ethyl)amino)methyl)phenyl)-7H-pyrrolo[2,3-d]pyrimidin-4-yl)-5-fluoro-2-methylphenyl)-2-fluoro-4-(2-hydroxypropan-2-yl)benzamide] | 40.5% | 40.2 nM | 2390 nM
12 | Cc1c(NC(=O)c2ccc(C(C)(C)O)cc2F)cc(F)cc1-c1ncnc2[nH]c(-c3ccc(CN4CCC(OC5CCN(CCn6cccc(CN7CCC(=O)NC7=O)c6=O)CC5)CC4)cc3)cc12 [Compound 33, N-(3-(6-(4-((4-((1-(2-(3-((2,4-dioxotetrahydropyrimidin-1(2H)-yl)methyl)-2-oxopyridin-1(2H)-yl)ethyl)piperidin-4-yl)oxy)piperidin-1-yl)methyl)phenyl)-7H-pyrrolo[2,3-d]pyrimidin-4-yl)-5-fluoro-2-methylphenyl)-2-fluoro-4-(2-hydroxypropan-2-yl)benzamide] | 6.1% | 2.1 nM | 915 nM
13 | Cc1c(NC(=O)c2ccc(C(C)(C)O)cc2F)cc(F)cc1-c1ncnc2[nH]c(-c3ccc(CNCCCCOCCn4cccc(CN5CCC(=O)NC5=O)c4=O)cc3)cc12 [Compound 34, N-(3-(6-(4-(((4-(2-(3-((2,4-dioxotetrahydropyrimidin-1(2H)-yl)methyl)-2-oxopyridin-1(2H)-yl)ethoxy)butyl)amino)methyl)phenyl)-7H-pyrrolo[2,3-d]pyrimidin-4-yl)-5-fluoro-2-methylphenyl)-2-fluoro-4-(2-hydroxypropan-2-yl)benzamide] | 40.3% | 642 nM | 736 nM
14 | Cc1c(NC(=O)N2C[C@H](CC(C)C)[C@@H](O)C2)cc(F)cc1-c1ncnc2[nH]c(-c3ccc(CN4CCC(OC5CCN(CCn6cccc(CN7CCC(=O)NC7=O)c6=O)CC5)CC4)cc3)cc12 [Compound 35, (3R,4S)—N-(3-(6-(4-((4-((1-(2-(3-((2,4-dioxotetrahydropyrimidin-1(2H)-yl)methyl)-2-oxopyridin-1(2H)-yl)ethyl)piperidin-4-yl)oxy)piperidin-1-yl)methyl)phenyl)-7H-pyrrolo[2,3-d]pyrimidin-4-yl)-5-fluoro-2-methylphenyl)-3-hydroxy-4-isobutylpyrrolidine-1-carboxamide] | 6.6% | 2.1 nM | 742 nM
